6 molecules from ChEMBL document CHEMBL3751669, “Structural refinement of pyrazolo[4,3-d]pyrimidine derivatives to obtain highly potent and selective antagonists for the human A3 adenosine receptor” (Eur J Med Chem, 2016) can be followed below.

Assay [1] has as its target T1, Adenosine receptor A1 (Homo sapiens, UniProt P30542).
T1 sequence (P30542 whole entry): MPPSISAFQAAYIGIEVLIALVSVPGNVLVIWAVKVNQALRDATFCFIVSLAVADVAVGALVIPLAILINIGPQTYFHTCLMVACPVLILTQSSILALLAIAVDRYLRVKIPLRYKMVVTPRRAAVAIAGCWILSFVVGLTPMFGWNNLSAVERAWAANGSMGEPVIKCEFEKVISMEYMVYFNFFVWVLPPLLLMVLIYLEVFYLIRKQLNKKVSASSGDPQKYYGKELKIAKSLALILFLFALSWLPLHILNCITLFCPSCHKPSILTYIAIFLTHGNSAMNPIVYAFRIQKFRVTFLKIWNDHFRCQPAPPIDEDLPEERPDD
The assay is described as follows: Displacement of [3H]DPCPX at human A1 receptor expressed in CHO cell membrane after 120 mins by scintillation counting method. Format: cell membranes. A general note: Loss of bound radioactivity is the signal in a displacement assay; it reports binding, not function.

The target of assay [2] is T2, Adenosine receptor A2a (Homo sapiens, UniProt P29274). The assay is described as follows: Displacement of [3H]ZM241385 at human A2A receptor expressed in CHO cell membrane after 60 mins by scintillation counting method. Format: cell membranes.
Assay [3] addresses T3, Adenosine receptor A3 (Homo sapiens, UniProt P0DMS8).
T3 sequence (P0DMS8 whole entry): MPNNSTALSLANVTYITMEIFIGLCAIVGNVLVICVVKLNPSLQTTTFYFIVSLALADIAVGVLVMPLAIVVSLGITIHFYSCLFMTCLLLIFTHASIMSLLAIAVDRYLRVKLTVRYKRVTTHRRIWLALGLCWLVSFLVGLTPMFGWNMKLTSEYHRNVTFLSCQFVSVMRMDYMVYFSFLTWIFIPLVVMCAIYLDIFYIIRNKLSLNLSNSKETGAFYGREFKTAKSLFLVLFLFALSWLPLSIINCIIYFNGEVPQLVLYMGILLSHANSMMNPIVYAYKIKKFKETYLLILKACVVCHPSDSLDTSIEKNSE
The assay can be described thus: Displacement of [125I]AB-MECA at human […] receptor expressed in CHO cell membrane after 60 mins by scintillation counting method. Type of assay: cell membranes.

For assay [4], the target named is T4, Adenosine receptor A2b (Homo sapiens) (UniProt P29275).
T4 sequence (whole entry): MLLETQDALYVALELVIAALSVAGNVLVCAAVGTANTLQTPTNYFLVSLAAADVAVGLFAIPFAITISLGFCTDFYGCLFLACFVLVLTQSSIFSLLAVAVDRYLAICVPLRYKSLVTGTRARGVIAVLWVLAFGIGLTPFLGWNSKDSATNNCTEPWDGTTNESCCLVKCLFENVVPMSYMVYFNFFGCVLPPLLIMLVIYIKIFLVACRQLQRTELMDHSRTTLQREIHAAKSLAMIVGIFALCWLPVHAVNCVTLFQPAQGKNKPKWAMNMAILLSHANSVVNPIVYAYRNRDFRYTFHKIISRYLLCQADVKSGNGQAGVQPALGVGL
The assay is described as follows: Antagonist activity at human A2B receptor expressed in CHO cells assessed as inhibition of NECA-stimulated cAMP production at 1 uM by scintillation counting method. Format: functional, cell-based. In general terms: Changes in cAMP serve as a functional read-out for many G protein-coupled receptors.

Assay [5] addresses T5, Adenosine receptor A1 (Homo sapiens) (UniProt P30542).
T5 sequence (whole entry): T1 sequence (P30542 whole entry)
The assay can be described thus: Displacement of [3H]DPCPX at human A1 receptor expressed in CHO cell membrane at 1 uM after 120 mins by scintillation counting method. Format: cell membranes.

Assay [6] concerns the target T2, Adenosine receptor A2a. The assay can be described thus: Displacement of [3H]ZM241385 at human A2A receptor expressed in CHO cell membrane at 1 uM after 60 mins by scintillation counting method. Format: cell membranes.
The target in assay [7] is T3, Adenosine receptor A3. The assay can be described thus: Antagonist activity at human A3 receptor expressed in CHO cells assessed as inhibition of Cl-IB-MECA-induced cAMP production by scintillation counting method. Type of assay: functional, cell-based.
The target of assay [8] is T6, Adenosine receptor A3 (Rattus norvegicus, UniProt P28647).
T6 sequence (P28647 whole entry): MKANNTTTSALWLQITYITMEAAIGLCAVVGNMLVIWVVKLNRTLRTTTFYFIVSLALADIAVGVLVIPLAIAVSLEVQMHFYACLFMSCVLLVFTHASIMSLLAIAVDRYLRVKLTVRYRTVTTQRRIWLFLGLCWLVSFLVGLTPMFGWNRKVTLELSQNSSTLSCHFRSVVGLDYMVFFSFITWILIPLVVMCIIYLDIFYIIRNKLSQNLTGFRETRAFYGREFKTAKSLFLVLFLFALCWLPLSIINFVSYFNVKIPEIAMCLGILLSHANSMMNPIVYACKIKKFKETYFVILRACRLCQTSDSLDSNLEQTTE
The assay can be described thus: Displacement of [125I]AB-MECA at rat A3 receptor expressed in HEK293 cells after 60 mins by scintillation counting method. Format: cell-based.

A word on the Ki: it is a dissociation constant, usually derived from enzyme kinetics or from competition with a known ligand. A higher Ki goes with weaker binding. By inhibition is commonly meant the drop in the measured response relative to a control, in per cent. The IC50 is the concentration that gives 50% inhibition.

T2 sequence (P29274 whole entry): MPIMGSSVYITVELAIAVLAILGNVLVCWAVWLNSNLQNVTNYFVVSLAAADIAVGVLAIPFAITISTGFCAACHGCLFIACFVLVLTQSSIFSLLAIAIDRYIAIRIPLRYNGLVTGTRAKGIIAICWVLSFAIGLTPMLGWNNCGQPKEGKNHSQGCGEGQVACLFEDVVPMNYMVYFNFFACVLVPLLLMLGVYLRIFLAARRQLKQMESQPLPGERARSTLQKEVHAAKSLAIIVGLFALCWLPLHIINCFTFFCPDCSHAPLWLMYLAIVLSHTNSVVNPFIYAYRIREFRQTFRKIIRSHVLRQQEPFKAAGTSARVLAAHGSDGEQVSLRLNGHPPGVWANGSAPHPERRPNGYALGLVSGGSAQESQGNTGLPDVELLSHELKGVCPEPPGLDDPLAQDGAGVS

Turning to `Nc1nc(-c2cccs2)nc2cn(-c3ccccc3)nc12`, the inhibition constant (Ki) in assay [1] worked out at 52 nM; in assay [2] it was 115 nM; in assay [3], 9.7 nM. Further, in assay [4], the inhibition was 27%.

Consider `Nc1nc(-c2ccccc2)nc2cn(Cc3ccccc3)nc12`, for which the results for the Ki in assay [1], in assay [2] and in assay [3] were 250 nM, 300 nM and 54 nM, respectively. Also, in assay [4], the inhibition was found to be 1%.

Regarding `COc1ccc(C(=O)Nc2nc(-c3ccc(OC)cc3)nc3cn(-c4ccccc4)nc23)cc1`, the inhibition in assay [5] was 3%; in assay [6], 1%; in assay [4] it was 1%. Moreover, the values for the Ki in assay [3] and in assay [8] were 1.31 nM and over 10000 nM, respectively. For the same molecule, the IC50 in assay [7] is 4.27 nM.

For `O=C(Nc1nc(-c2cccs2)nc2cn(-c3ccccc3)nc12)c1ccccc1`, the inhibition in assay [5], in assay [6] and in assay [4] was 1% each time. The figures for the inhibition constant (Ki) in assay [3] and in assay [8] were 2.12 nM and over 10000 nM, respectively. In addition, in assay [7], the IC50 turned out to be 5.32 nM.

On to `COc1ccc(-c2nc(NC(=O)c3ccccc3)c3nn(-c4ccccc4)cc3n2)cc1`, for which the inhibition stood at 2% in assay [5], 1% in assay [6] and 1% in assay [4]. For the same molecule, the inhibition constant (Ki) is 6.42 nM in assay [3] and over 10000 nM in assay [8]. The concentration for half-maximal inhibition (IC50) in assay [7] is 26 nM.

With `COc1ccc(C(=O)Nc2nc(-c3cccs3)nc3cn(-c4ccccc4)nc23)cc1`, the inhibition in assay [5], in assay [6] and in assay [4] was 1% each time. Besides, the inhibitory constant (Ki) is 0.027 nM in assay [3] and over 10000 nM in assay [8]. The half-maximal inhibitory concentration (IC50) in assay [7] amounted to 0.11 nM.
